# Measurements from patent EP0248858B1, “NOVEL PHOSPHO-COMPOUNDS AND M[…]” (Max-Planck-Gesellschaft zur Förderung der Wissenschaften …, priority 1985, dated 1987).
# System: chemisch induzierten Mamma-Karzinomen
# Assay: chemically induced mammary carcinoma of the rat, oral administration as drinking solution
# Type: in vivo
# Conditions: Ratten; for Remission von chemisch induzierten Mamma-Karzinomen: oral (Trinklösung), Tagesdosen von 20, 40 und 60 mg/kg Körpergewicht; for Verträglichkeit compared with 1-Octadecyl-2-methyl-rac-glycero-3-phospho-cholin / Wirksamkeit compared with 1-Octadecyl-2-methyl-rac-glycero-3-phospho-cholin: oral, comparison with 1-Octadecyl-2-methyl-rac-glycero-3-phospho-cholin
# Excerpt: Die erfindungsgemäßen Arzneimittel, welche als Wirkstoffe eine Verbindung der allgemeinen Formel I enthalten, besitzen eine ausgeprägte cytotoxische Wirksamkeit, die sowohl in vivo am chemisch induzierten Mamma-Karzinom der Ratte, als auch in vitro an Leukämiezellen in der Zellkultur nachgewiesen wurde. Darüberhinaus wurden in einer klinischen Pilotstudie bei Patientinnen mit Mamma-Karzinom Hautmetastasen zur vollständigen Abheilung bei topischer Anwendung gebracht.
# Für die orale Verabreichung werden die Verbindungen der allgemeinen Formel I zweckmäßig in Form einer Trinklösung angewendet. Als Träger eignen sich beispielsweise Milch, Kakao, Fruchtsaft oder Trinkwasser. […] Bei dem für diese Versuche verwendeten Tumormodell handelt es sich um ein sogenanntes hartes Modell. Dies bedeutet, daß die an diesem Modell erstellten Befunde in den meisten Fällen auch auf die humane Situation übertragbar sind.
Compound,Remission von chemisch induzierten Mamma-Karzinomen,Verträglichkeit compared with 1-Octadecyl-2-methyl-rac-glycero-3-phospho-cholin,Wirksamkeit compared with 1-Octadecyl-2-methyl-rac-glycero-3-phospho-cholin
CCCCCCCCCCCCCCCCOP(=O)([O-])OCC[N+](C)(C)C [Hexadecylphosphocholin],vollständigen Remission,besser verträglich,besser wirksam
CCCCCCCC/C=C\CCCCCCCCOP(=O)([O-])OCC[N+](C)(C)C [Oleylphosphocholin],vollständigen Remission,besser verträglich,besser wirksam
